Active and inactive are the calls of the source. No cut-off for these calls is given here.
How the values were obtained:
Homo sapiens [1] = species: Homo sapiens; experiment: (§1) Activation of recombinant human GPX4 D23A/U46C double mutant expressed in Escherichia coli M15 assessed as increase in oxidized glutathione-mediated oxidation of NADPH to NADP+ using tert-butyl hydroperoxide as substrate preincubated for 5 mins followed by substrate addition measured for 6 mins by glutathione reductase enzyme coupled fluorescence assay relative to GPX4 U46C mutant control
[2] = molecular target: T1, Phospholipid hydroperoxide glutathione peroxidase GPX4 (Homo sapiens) (UniProt P36969); experiment: Activation of GPX4 (unknown origin) expressed in HEK293T cells harboring luc2P/NF-kBRE/Hygro plasmid assessed as inhibition of IL1beta-stimulated NFkB activation preincubated for 30 mins followed by […] and measured after 6 hrs by luciferase reporter gene assay; format: cell-based
T1 sequence (whole entry): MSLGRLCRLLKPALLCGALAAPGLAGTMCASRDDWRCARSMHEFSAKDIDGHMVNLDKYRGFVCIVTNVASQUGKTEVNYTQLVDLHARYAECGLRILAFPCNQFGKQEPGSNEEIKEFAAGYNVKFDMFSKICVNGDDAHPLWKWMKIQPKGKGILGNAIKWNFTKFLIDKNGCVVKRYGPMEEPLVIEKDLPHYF

[3] = Antioxidant activity assessed as DPPH radical scavenging activity at 500 uM; format: functional
[4] = molecular target: T1, Phospholipid hydroperoxide glutathione peroxidase GPX4 (Homo sapiens); experiment: Activation of GPX4 in human HT1080 cells assessed as inhibition of erastin-induced ferroptosis at 125 uM preincubated for 30 mins followed by erastin addition measured after 24 hrs by MTS assay; format: cell-based
[5] = molecular target: T2, Prostaglandin E synthase (Homo sapiens) (UniProt O14684); experiment: Inhibition of mPGES1 (unknown origin) at 500 uM preincubated for 15 mins followed by PGH2 substrate addition and measured after 1 min by EIA relative to control
T2 sequence (whole entry): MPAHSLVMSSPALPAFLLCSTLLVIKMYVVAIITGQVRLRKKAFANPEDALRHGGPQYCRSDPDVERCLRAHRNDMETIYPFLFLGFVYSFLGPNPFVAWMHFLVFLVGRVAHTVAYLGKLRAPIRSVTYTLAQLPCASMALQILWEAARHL

[6] = molecular target: Phospholipid hydroperoxide glutathione peroxidase GPX4 (Mus musculus) (UniProt O70325); experiment: Activation of GPX4 in MEF assessed as increase in oxidized glutathione-mediated oxidation of NADPH to NADP+ using tert-butyl hydroperoxide as substrate preincubated for 5 mins followed by substrate addition measured for 6 mins by glutathione reductase enzyme coupled fluorescence assay; format: cell-based
Chain of Phospholipid hydroperoxide glutathione peroxidase GPX4 (Mus musculus) (O70325 whole entry): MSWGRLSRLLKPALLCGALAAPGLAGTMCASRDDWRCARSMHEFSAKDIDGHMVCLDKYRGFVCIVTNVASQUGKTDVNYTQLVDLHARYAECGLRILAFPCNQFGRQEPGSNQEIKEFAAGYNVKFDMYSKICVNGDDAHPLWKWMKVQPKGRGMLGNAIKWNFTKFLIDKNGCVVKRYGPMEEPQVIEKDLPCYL

Homo sapiens [7] = species: Homo sapiens; experiment: as §1, with “recombinant His-tagged” for “recombinant”, “human cytosolic” for “human”, “U46C” for “D23A/U46C double”, “assay” for “assay relative to GPX4 U46C mutant control”
[8] = molecular target: T1, Phospholipid hydroperoxide glutathione peroxidase GPX4 (Homo sapiens); experiment: Activation of GPX4 in A23187-stimulated human PMN leukocytes assessed as increase in 5-HETE/LTB4 ratio preincubated for 15 mins followed by A23187 addition and measured after 120 mins by LC-MS analysis
[9] = molecular target: T3, Polyunsaturated fatty acid 5-lipoxygenase (Homo sapiens) (UniProt P09917); experiment: Inhibition of human 5-LOX at 500 uM preincubated for 10 mins followed by arachidonic acid substrate addition in presence of H2DCFDA by spectrophotometric method
T3 sequence (whole entry): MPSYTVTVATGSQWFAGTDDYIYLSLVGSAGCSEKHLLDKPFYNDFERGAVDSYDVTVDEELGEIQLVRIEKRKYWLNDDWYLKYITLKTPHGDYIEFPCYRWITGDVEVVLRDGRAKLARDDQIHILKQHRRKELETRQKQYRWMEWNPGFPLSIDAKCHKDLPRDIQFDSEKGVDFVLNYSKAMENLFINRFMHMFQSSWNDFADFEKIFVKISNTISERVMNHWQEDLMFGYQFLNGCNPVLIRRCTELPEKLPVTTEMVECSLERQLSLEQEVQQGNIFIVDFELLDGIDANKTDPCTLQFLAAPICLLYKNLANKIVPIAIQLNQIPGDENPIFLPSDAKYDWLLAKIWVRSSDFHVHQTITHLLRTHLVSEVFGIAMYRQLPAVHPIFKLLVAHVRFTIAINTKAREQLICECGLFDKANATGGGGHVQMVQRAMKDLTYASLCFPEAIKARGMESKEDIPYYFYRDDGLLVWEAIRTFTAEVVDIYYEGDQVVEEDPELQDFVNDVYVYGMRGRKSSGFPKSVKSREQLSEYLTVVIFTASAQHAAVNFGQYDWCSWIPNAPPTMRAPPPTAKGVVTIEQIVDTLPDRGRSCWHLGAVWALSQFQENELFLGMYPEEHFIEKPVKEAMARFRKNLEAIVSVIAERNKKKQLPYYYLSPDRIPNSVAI

[10] = Zinc chelating activity in presence of ZnSO4 after 10 mins by crystal violet staining based assay
[11] = molecular target: Prostaglandin G/H synthase 1 (Homo sapiens) (UniProt P23219); experiment: Inhibition of COX1 (unknown origin) at 500 uM preincubated for 15 mins followed by arachidonic acid substrate addition in presence of TMPD by spectrophotometric method
Chain of Prostaglandin G/H synthase 1 (Homo sapiens) (P23219 whole entry): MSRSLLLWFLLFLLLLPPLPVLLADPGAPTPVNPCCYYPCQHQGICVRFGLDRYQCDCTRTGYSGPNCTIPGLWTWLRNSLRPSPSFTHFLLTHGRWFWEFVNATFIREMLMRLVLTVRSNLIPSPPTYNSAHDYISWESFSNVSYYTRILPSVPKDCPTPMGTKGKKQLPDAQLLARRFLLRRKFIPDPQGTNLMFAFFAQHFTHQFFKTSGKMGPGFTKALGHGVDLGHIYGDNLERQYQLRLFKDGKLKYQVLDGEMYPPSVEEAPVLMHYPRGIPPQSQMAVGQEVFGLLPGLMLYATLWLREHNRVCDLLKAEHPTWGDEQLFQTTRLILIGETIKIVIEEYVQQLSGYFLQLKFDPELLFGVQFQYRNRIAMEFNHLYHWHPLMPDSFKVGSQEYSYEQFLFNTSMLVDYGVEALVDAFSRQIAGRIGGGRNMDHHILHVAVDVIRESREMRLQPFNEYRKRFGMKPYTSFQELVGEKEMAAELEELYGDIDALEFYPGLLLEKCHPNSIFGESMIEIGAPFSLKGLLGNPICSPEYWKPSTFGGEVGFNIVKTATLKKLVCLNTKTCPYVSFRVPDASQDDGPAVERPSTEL

Homo sapiens [12] = species: Homo sapiens; experiment: as §1, with “D21A/U46C” for “D23A/U46C”
[13] = molecular target: T4, Leukotriene A-4 hydrolase (Homo sapiens) (UniProt P09960); experiment: Inhibition of LTA4H (unknown origin) at 500 uM preincubated for 15 mins followed by LTA4 substrate addition and measured after 10 mins by ELISA relative to control
T4 sequence (whole entry): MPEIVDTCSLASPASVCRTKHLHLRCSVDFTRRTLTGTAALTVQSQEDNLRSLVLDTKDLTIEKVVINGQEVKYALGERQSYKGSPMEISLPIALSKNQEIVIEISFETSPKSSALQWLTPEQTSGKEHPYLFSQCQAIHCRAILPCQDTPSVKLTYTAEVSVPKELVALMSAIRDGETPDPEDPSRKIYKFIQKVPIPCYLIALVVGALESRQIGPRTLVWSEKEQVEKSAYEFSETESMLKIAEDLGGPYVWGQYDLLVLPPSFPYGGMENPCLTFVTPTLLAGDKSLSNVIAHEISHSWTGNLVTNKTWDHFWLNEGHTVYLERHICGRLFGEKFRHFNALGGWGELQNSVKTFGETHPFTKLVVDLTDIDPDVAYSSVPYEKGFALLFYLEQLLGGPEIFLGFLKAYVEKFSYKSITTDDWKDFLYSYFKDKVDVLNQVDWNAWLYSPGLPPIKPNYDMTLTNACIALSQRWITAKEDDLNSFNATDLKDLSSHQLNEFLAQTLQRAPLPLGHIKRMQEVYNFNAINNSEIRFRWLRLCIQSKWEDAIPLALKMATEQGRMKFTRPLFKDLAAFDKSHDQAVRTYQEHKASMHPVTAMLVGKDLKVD

[14] = molecular target: T1, Phospholipid hydroperoxide glutathione peroxidase GPX4 (Homo sapiens); experiment: Activation of GPX4 in A23187-stimulated human PMN leukocytes assessed as increase in 12-HETE preincubated for 15 mins followed by A23187 addition and measured after 120 mins by LC-MS analysis

NS(=O)(=O)c1ccc(NC(S)=NCc2ccc(Cl)cc2)cc1
EC150 (Homo sapiens [1]): 372 µM
inhibition [2]: Dose-dependent effect
Activity [3]: inactive
inhibition [4]: Active
inhibition [5]: 23%
Activity [6]: Dose-dependent effect
Activity (Homo sapiens [7]): Dose-dependent effect
EC150 (Homo sapiens [7]): 248 µM
Activity [8]: Dose-dependent effect
inhibition [9]: inactive
Activity [10]: inactive
inhibition [11]: inactive
EC150 (Homo sapiens [12]): 618 µM
inhibition [13]: 17%
Activity [14]: Dose-dependent effect

Source: ChEMBL document CHEMBL4308834, “Novel Allosteric Activators for Ferroptosis Regulator Glutathione Peroxidase 4” (J Med Chem, 2018)
